In patent US10981906B2, “Substituted pyrrolopyridine JAK inhibitors and methods of making and using the same” (ACLARIS THERAPEUTICS, INC., priority 2017, dated 2021):

Legend:
JAK3 (a.a. 781-1124) = JAK3 (a.a. 781-1124) (Homo sapiens (Human), UniProt P52333); assay: JAK3 enzyme activity assay (SRCtide phosphorylation, Caliper); format: biochemical; details: 2.5 nM JAK3, 1 μM SRCtide, 1 uM ATP, 40 minutes; read-out: JAK3 Inhibition IC50
Description: The activity of JAK3 (a.a. 781-1124, ThermoFisher) was quantified by measuring the phosphorylation of SRCtide (FAM-GEEPLYWSFPAKKK-NH2). Kinase reactions were run in a 384-well Greiner plate with 2% final DMSO concentration under the buffer conditions of 20 mM HEPES, pH 7.5, 10 mM MgCl2, 0.01% BSA, and 0.0005% Tween-20. The kinase reaction components were 2.5 nM JAK3, 1 μM SRCtide peptide and 1 uM ATP. Examples were tested in dose-response starting at 2 μM (11 concentrations, 3-fold serial dilution, duplicate reactions). The reactions were incubated at room temperature for 40 minutes, then stopped by adding a 1:1 volume of 30 mM EDTA in 20 mM HEPES, pH 7.5 (15 mM EDTA final). After the reaction was stopped, the phosphorylated and unphosphorylated peptides were separated and quantified using a Caliper LC3000/EZ-Reader system and HTS Well Analyzer Software (Caliper, A PerkinElmer Company, Hopkinton, Mass.). GraFit (Erithacus Software Ltd., Horley, U.K.) was used to calculate inhibitor potency by fitting dose-response data to the 4-parameter logistical IC50 equation.
(§1) Background signal is defined in the absence of enzyme and uninhibited signal is defined in the presence of vehicle (2% DMSO) alone. Compounds were evaluated in an 11 point dose-response ranging from […] to 0.34 nM. IC50 values of compounds are determined using a 4 parameter logistical fit of emission ratio as a function of the concentration of compound.

JAK1 = JAK1 (Homo sapiens (Human), UniProt P23458); assay: JAK1 enzyme activity assay (Thermo Fisher SelectScreen Z-lyte); format: biochemical; details: 1 hour kinase reaction, read-out: JAK1 Inhibition IC50
Description: The inhibitory potency of candidate compounds of JAK1 done at Thermo Fisher Scientific in their Selectscreen using a Z-lyte assay. The 2×JAK1/Tyr 06 mixture is prepared in 50 mM HEPES pH 6.5, 0.01% BRIJ-35, 10 mM MgCl2, 1 mM EGTA, 0.02% NaN3. The final 10 μL of the Kinase Reaction consists of 21.2-91.5 ng JAK1 and 2 μM Tyr 06 in 50 mM HEPES pH 7.0, 0.01% BRIJ-35, 10 mM MgCl2, 1 mM EGTA, 0.01% NaN3. After the 1 hour Kinase Reaction incubation, 5 μL of a 1:128 dilution of Development Reagent is added.
as §1

[1] = system: IL-2 stimulated STAT5 phosphorylation on Tyr694 (JAK1/3); assay: JAK1/3 cellular target modulation: IL-2 stimulated phospho-STAT5 in PBMC; format: cell-based; details: Homo sapiens, PBMC, IL-2 25 ng/ml, 1 hour compound preincubation, read-out: IL2-STAT5 Inhibition IC50
From the text: (§2) Target modulation was based upon the ability of a compound to inhibit JAK isoform specific phosphorylation of selected substrates. IL-2 stimulated STAT5 phosphorylation on Tyr694 was used to assess JAK1/3 compound selectivity. GM-CSF stimulated STAT5 phosphorylation on Tyr694 was used to assess JAK2 compound selectivity. IFNγ stimulated STAT1 phosphorylation on Tyr701 was used to assess JAK1/2 compound selectivity. For all three assays, human PBMC from frozen stocks were thawed, pelleted, resuspended in complete media (90% RPMI, 10% heat inactivated FBS, 10 mM HEPES, 47 μM 2-ME, pen/strep) and placed in wells of a 96 well V-bottom plate at 200,000 per well in 120 μl complete media. Compounds were added as 15 μl per well of 10× working stock solutions in complete media with 1% DMSO (or medium with 1% DMSO for controls) and placed on a plate shaker in a 37° C. incubator with 5% CO2 for 1 hour with gentle shaking (setting of 3). Stimulation used the addition of soluble cytokines. For the JAK1/3 phospho-STAT5 assay, 15 μl of 10× working stock recombinant human IL-2 was added to a final concentration of 25 ng/ml. For the JAK2 phospho-STAT5 assay, 15 μl of 10× working stock recombinant human GM-CSF was added to a final concentration of 5 ng/ml. For the JAK1/2 phospho-STAT1 assay, 15 μl of 10× working stock of recombinant human IFNγ was added to a final concentration of 10 ng/ml. Plates were then placed back on the plate shaker in the incubator for an additional 5, 5 and 10 minutes respectively upon which the plates were removed from the incubator, sealed with a plate sealer and the cells pelleted at 400×g for 5 minutes. After pelleting, the media was removed by aspiration and the cells were lysed in ELISA specific cell lysis buffer. The levels of phospho-STAT5 were determined using a Phospho (Tyr694)/Total STAT5a,b Whole Cell Lysate kit from Meso Scale Discovery. Levels of phospho-STAT1 were determined using a CST-PathScan Phospho-STAT1 (Tyr701) Sandwich ELISA kit.

[2] = system: IFNγ stimulated STAT1 phosphorylation on Tyr701 (JAK1/2); assay: JAK1/2 cellular target modulation: IFNγ stimulated phospho-STAT1 in PBMC; format: cell-based; details: Homo sapiens, PBMC, IFNγ 10 ng/ml, 1 hour compound preincubation, read-out: Infγ-STAT1 IC50
From the text: as §2

Chain of JAK1 (P23458 whole entry): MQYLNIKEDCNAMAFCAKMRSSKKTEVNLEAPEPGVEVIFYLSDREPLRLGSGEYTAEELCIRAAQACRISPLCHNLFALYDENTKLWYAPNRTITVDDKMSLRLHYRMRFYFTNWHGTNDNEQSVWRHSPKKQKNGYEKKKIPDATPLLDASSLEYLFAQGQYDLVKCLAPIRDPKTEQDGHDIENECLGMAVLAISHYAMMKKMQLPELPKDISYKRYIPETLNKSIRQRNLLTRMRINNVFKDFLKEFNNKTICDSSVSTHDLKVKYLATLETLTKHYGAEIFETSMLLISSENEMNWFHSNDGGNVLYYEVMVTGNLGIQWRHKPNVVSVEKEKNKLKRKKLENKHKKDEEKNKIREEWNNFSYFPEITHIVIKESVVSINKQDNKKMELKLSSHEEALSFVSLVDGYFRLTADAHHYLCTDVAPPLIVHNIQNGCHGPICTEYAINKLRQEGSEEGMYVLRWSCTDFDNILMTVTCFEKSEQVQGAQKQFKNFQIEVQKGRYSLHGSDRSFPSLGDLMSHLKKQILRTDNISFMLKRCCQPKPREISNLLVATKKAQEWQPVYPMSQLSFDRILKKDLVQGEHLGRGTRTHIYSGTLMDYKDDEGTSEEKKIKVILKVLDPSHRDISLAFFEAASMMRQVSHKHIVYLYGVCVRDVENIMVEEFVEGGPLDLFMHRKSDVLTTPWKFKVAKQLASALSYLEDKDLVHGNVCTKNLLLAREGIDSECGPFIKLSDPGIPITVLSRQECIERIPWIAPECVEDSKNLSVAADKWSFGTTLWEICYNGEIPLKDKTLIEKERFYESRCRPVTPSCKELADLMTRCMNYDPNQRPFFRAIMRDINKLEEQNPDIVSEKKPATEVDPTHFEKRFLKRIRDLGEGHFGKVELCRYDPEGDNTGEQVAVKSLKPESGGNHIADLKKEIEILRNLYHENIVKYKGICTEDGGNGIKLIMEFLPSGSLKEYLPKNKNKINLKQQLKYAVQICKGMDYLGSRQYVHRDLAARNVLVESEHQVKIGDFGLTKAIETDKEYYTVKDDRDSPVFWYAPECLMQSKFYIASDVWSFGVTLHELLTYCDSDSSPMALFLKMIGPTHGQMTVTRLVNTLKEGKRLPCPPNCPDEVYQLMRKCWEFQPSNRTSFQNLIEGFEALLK
Chain of JAK3 (a.a. 781-1124) (P52333 781-1124): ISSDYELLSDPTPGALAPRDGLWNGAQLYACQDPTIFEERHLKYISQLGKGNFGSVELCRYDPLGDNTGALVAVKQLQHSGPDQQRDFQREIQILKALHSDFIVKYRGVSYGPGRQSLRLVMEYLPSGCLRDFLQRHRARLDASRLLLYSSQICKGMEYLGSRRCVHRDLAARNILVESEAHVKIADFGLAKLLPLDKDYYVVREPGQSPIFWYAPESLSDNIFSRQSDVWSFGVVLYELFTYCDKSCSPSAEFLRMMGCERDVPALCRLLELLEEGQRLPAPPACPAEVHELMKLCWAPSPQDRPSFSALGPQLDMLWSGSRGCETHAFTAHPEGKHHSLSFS

IC50 (JAK3 (a.a. 781-1124)) [µM]	IC50 (JAK1) [µM]	IC50 [1] [µM]	IC50 [2] [µM]	Compound
≤ 0.01	≤ 0.01	0.1 to 1	0.1 to 1	CCCOC(=O)c1cnc2[nH]ccc2c1N[C@H]1CCC[C@H](CCC#N)C1 (racemic) [Example 140, (rac)-(trans)-propyl 4-((3-(2-cyanoethyl)cyclohexyl)amino)-1H-pyrrolo[2,3-b]pyridine-5-carboxylate]
≤ 0.01	≤ 0.01	≤ 0.1	0.1 to 1	CCOC(=O)c1cnc2[nH]ccc2c1N[C@H]1CCC[C@@H](CCC#N)C1 (racemic) [Example 133, (rac)-(cis)-ethyl 4-((3-(2-cyanoethyl)cyclohexyl)amino)-1H-pyrrolo[2,3-b]pyridine-5-carboxylate]
≤ 0.01	≤ 0.01	≤ 0.1	≤ 0.1	CCOC(=O)c1cnc2[nH]ccc2c1N[C@H]1CCC[C@@H](CCC#N)C1 (single isomer, unassigned; enantiomer 1) [Example 135, (cis) ethyl 4-((3-(2-cyanoethyl)cyclohexyl)amino)-1H-pyrrolo[2,3-b]pyridine-5-carboxylate, enantiomer 1]
0.01 to 0.1	0.01 to 0.1	0.1 to 1	> 1	CCOC(=O)c1cnc2[nH]ccc2c1N[C@H]1CC[C@H](O)C1 (single isomer, unassigned) [Example 75, (trans)-ethyl 4-((3-hydroxycyclopentyl)amino)-1H-pyrrolo[2,3-b]pyridine-5-carboxylate]
≤ 0.01	≤ 0.01	≤ 0.1	0.1 to 1	CCOC(=O)c1cnc2[nH]ccc2c1NC1CCC(CCC#N)C1 (mixture of isomers) [Example 153, Ethyl 4-((3-(2-cyanoethyl)cyclopentyl)amino)-1H-pyrrolo[2,3-b]pyridine-5-carboxylate as a mixture of 2 stereoisomers]
≤ 0.01	≤ 0.01	≤ 0.1	0.1 to 1	CCOC(=O)c1cnc2[nH]ccc2c1N[C@H]1CC[C@H](CS(=O)(=O)NC)CC1 [Example 92, ethyl 4-(((1r,4r)-4-((N-methylsulfamoyl)methyl)cyclohexyl)amino)-1H-pyrrolo[2,3-b]pyridine-5-carboxylate]
0.01 to 0.1	0.1 to 1	> 1	–	CCOC(=O)c1cnc2[nH]ccc2c1N[C@H]1CCCN(C(=O)CC#N)C1 [Example 143, ethyl (S)-4-((1-(2-cyanoacetyl)piperidin-3-yl)amino)-1H-pyrrolo[2,3-b]pyridine-5-carboxylate]
≤ 0.01	≤ 0.01	≤ 0.1	0.1 to 1	CCOC(=O)c1cnc2[nH]ccc2c1N[C@H]1CN(CCC#N)CC[C@H]1C [Example 24, ethyl 4-(((3R,4R)-1-(2-cyanoethyl)-4-methylpiperidin-3-yl)amino)-1H-pyrrolo[2,3-b]pyridine-5-carboxylate]
≤ 0.01	≤ 0.01	≤ 0.1	> 1	CCOC(=O)c1cnc2[nH]ccc2c1N[C@@H]1CCC[C@@H](CCC#N)C1 (single isomer, unassigned; enantiomer 1) [Example 137, (trans) ethyl 4-((3-(2-cyanoethyl)cyclohexyl)amino)-1H-pyrrolo[2,3-b]pyridine-5-carboxylate enantiomer 1]
